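Five compound concentrations were applied to cells in 96-well plates for 48 hours; endpoints were derived by simple linear interpolation of the resulting dose-response curve. GI50 = concentration required for 50% inhibition of growth.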 Activity calls are given as the source filed them. Rule as the data show it: active = GI50 up to about 1.1 µM and inactive = higher.
Assays:
Test in all cases: inhibition of tumour cell growth, NCI panel, 48 h
DMS-114 = system: DMS-114
XF498 = system: XF498
DMS-273 = system: DMS-273
HOP-18 = system: HOP-18
LXFL 529 = system: LXFL 529
SNB-78 = system: SNB-78
DLD-1 = system: DLD-1
M19-MEL = system: M19-MEL
RXF 631 = system: RXF 631

Measured: GI50

C[C@H]1CC[C@H](NC(=O)N(CCCl)N=O)CC1
inactive: DMS-114 36.5 µM | XF498 45.7 µM | DMS-273 33.1 µM | HOP-18 40.8 µM | LXFL 529 14.9 µM | SNB-78 35.2 µM | DLD-1 39.5 µM | M19-MEL 41.3 µM | RXF 631 33.1 µM

Cc1ccccc1C1=C/C(=C(\SS/C(C(=O)c2ccc(OCC(=O)O)c(Cl)c2Cl)=C2\C=C(c3ccccc3C)SS2)C(=O)c2ccc(OCC(=O)O)c(Cl)c2Cl)SS1
inactive: DMS-114 9.04 µM | XF498 19.2 µM | DMS-273 20 µM | HOP-18 16.2 µM | LXFL 529 4.45 µM | SNB-78 14.4 µM | DLD-1 23.8 µM | M19-MEL 21.3 µM | RXF 631 25.9 µM

Reference: ChEMBL document CHEMBL1201862, “PubChem BioAssay data set” (2004)
